The values below come from patent US6121253A, “Prostaglandin conjugates for treating or preventing bone disease” (Merck Frosst Canada & Co., priority 1999, dated 2000).

A short description of data set [1]: Characterization of 3H liberated on hydrolysis of conjugate in rat plasma. Type of data set: in vitro ADME. The conditions noted are these: conjugate 20, 24 hr, fresh rat plasma, of the initial counts. Here is the method: A stock solution of 0.4 μCi conjugate 20 or [^3 H]-PGE2 (0.4 μCi) is incubated in either fresh rat plasma, boiled plasma or PBS (ml) at 37 C. After 4 h or 24 h, 100 μl aliquots are removed, diluted with acetonitrile (100 μl), vortexed and centrifuged. 100 μl of supernatant is separated by HPLC (C-18, 0.5% HOAc in water, 66%: acetonitrile 33%, 1 ml/min) with effluent monitored by an on-line scintillation detector and UV detector. No radioactivity is eluted under these conditions when 0.2 μCi, conjugate 20 (62 μg) is applied. (It is necessary to mix 0.4 mg of unlabelled 20 with 0.1 μCi labelled 20 to recover 0.05 μCi from the HPLC.) Radioactive peaks are identified by coelution with authentic [^3 H]-PGE2 and cold PGA2. An authentic sample of PGB2 is prepared by incubating PGE2 (2.4 mg) with 1 ml rat plasma at 37° C. for 24 hr. The sample, purified by HPLC, will have appropriate ^1 H-NMR, UV and MS. To identify radioactive peaks eluting at the solvent front with incubation of conjugate 20 for 24 hr in fresh rat plasma, the fraction is collected and distilled. The collected distillate has 60% of the initial counts.

Data set [2] is described as follows: Uptake/binding of dual-labelled conjugate to human bone powder in fetal bovine serum. The method, then: Dual-labelled conjugate 14 ([^3 H]-PGE2 /[^14 C]-alendronate) (21.64 μCi of ^14 C and 19.05 μCi of ^3 H) is placed in 1 ml 100% fetal bovine serum to yield a final concentration of 3.5 μM. […] of this solution is incubated with 10 mg bone powder for 1, 2, 3 and 5 mins with vigorous shaking. The mixture is centrifuged (20 sec), 125 μl aliquot is taken from each sample and counted in 10 ml Atomlight in an LKB liquid scintillation counter, 125 μl of the radioactive sample is also counted at 0 time. The uptake of radioactivity into the bone powder is calculated by subtracting the dpms in the medium counted at the times indicated above from dpms at 0 time and this number is divided by the dpms at 0 time.

Data set [3] in a line: Dissociation/release of label from human bone powder in fetal bovine serum at 37 C. Type of data set: in vitro ADME. Here is the method: Dissociation of [^3 H]-PGE2 /[^14 C]-alendronate from human bone powder in fetal bovine serum at 37 C is measured by incubating 10 mg of human one powder with 1 μl [^3 H]-PGE2 /[^14 C]-ABP in 1 ml FBS for 5 mins. The mixture is centrifuged (20 sec), 100 μl aliquot is taken and counted in Atomlight in an LKB liquid scintillation counter. The rest of the 900 μl solution is withdrawn, the bone powder is washed once with 1 ml phosphate buffered saline, 1 ml fresh fetal bovine serum is added and incubated with the bone powder for 15, 24, 39, 48, 59, 79 and 103 hours in a shaking bath at 37° C. 100 μl aliquots are withdrawn at these times and counted in 10 ml Atomlight in an LKB liquid scintillation counter. The release of radioactivity from the human bone powder into the medium is calculated as follows: dpms from 100 μl of the [^3 H]-PGE2 /[^14 C]-ABP at 5 mins are subtracted from dpms at 0 time. The resulting dpms reflect radioactivity taken up by bone powder. The dpms obtained by counting 100 μl aliquots at each time point are then divided by the dpms taken up by bone. 13% of the ^3 H-moiety is released into the medium at 15 hrs and by 103 hours 32.9% of the radioactivity is released into the medium.

The nature of data set [4]: In vivo uptake and release in rat tibiae and femora. Set-up: species or system rat (Sprague-Dawley female). The conditions noted are these: single i.v. dose. The method, then: The animals used in this experiment were sacrificed at 24 hours, 14 and 28 days after the compounds claimed in the instant invention were administered. The radioactivity of the ^14 C and ^3 H was measured after incineration of the long bones to determine the percentage of compound retained in the bone. […] High LP levels are normally associated with the breakdown of bone collagen.
Both compounds are administered i.v. via the tail vein to Sprague-Dawley female rats as a radiolabelled compound, equivalent to about 0.3 μCi/animal, [^3 H]-alendronate is administered to nine rats and [^3 H]-PGE2 /[^14 C]-ABP (dual labelled conjugate 14), is administered to seven rats. After 1, 14 or 28 days, animals are sacrificed by CO2 inhalation and the tibiae and femora are dissected, weighed and then stored at -20° C. The amount of radioactivity incorporated into the bone is determined by incineration in a Packard combuster after first air drying the bone for three days at ambient temperature. The percent of the compound retained in the skeleton at each time point is calculated on the basis of the radioactivity, converted to nmoles/gm bone on the assumption that the skeleton represents 8% of the body weight. The skeletal retention is expressed as percent administered dose.

For data set [5] the following is noted: long term s.c.; adrenal glands, liver, kidneys, and lungs; cited from earlier work.
For data set [6] the following is noted: cited from earlier work.
For data set [7] the following is noted: oral dosing; cited from earlier work.
The conditions of data set [8]: 1, 3 and 6 mg/Kg/day PGE2, rapidly growing rats; cited from earlier work.
The conditions of data set [9]: cited from earlier work. The source holds these as a separate data set.
Where [10] appears, read: s.c. over 60, 120, and 180 days.

Where two headings read alike, the source gives them in different places.

`CCCCC[C@@H](/C=C/[C@H]1[C@H](O)CC(=O)[C@@H]1C/C=C\CCCC(=O)O)OC(=O)CSCc1cc(CSCC(=O)O[C@H](/C=C/[C@H]2[C@H](O)CC(=O)[C@@H]2C/C=C\CCCC(=O)O)CCCCC)cc(CC(P(=O)(O)O)P(=O)(O)O)c1` [Conjugate 20, Bis-(PGE2)-bisphosphonate conjugate]: in [1], the “counts in collected distillate of radioactive peak eluting at solvent front” value is listed as 60%.

With `CCCCC[C@@H](/C=C/[C@H]1[C@H](O)CC(=O)[C@@H]1C/C=C\CCCC(=O)O)OC(=O)CSCCCC(P(=O)(O)O)P(=O)(O)O` [Conjugate 14, PGE2 bisphosphonate conjugate], in data set [2] (in vitro), the “time of uptake to human bone powder” value was “within one minute”. For the same compound, in data set [2] (within 1 min), the “uptake of 3H-moiety by human bone powder” value is given as ~53%. Also, the “uptake of 14C-moiety by human bone powder” value in data set [2] (within 1 min) is recorded as “about 76%”; in data set [2] (within 1 min, listed as 14 C/^3 H dual labeled compound), “About 77%”. Moreover, the “3H-moiety released into the medium” value in data set [3] (15 hrs, fetal bovine serum, 37° C.) came to 13%. Further, the “radioactivity released into the medium (3H-moiety)” value in data set [3] (103 hours, fetal bovine serum, 37° C.) stood at 32.9%. Moreover, the “rate of release (disassociation) of PG (3H) moiety from human bone powder” value in [3] (fetal bovine serum, 37° C., listed as 14 C/^3 H dual labeled compound) is recorded as “approximately 5 %/day”; in data set [3] (fetal bovine serum, 37° C., listed as [^3 H]-PGE2 /[^14 C]-alendronate) it was “About 5 %/day”. Also, the “release of the prostaglandin from the bisphosphonate at bone” value in data set [3] (radiolabel and radioimmunoassay experiments) was “confirm release of the prostaglandin from the bisphosphonate at the bone cell site”. Moreover, the “dpms of 14C-moiety in the medium” value in [3] (up to 103 hours, fetal bovine serum, 37° C.) is “not significantly changed”. The “uptake into / delivery to bone in vivo” value in data set [4] is “uptake of the labeled compound shown below into rat tibiae and femora after a single dose was administered intravaneously was demonstrated”.

For the compound `CCCCC[C@H](O)/C=C/[C@H]1[C@H](O)CC(=O)[C@@H]1C/C=C\CCCC(=O)O` [PGE2], in data set [5], the soft tissue weight entry is “soft tissue weight increases in adrenal glands, liver, kidneys, and lungs”. Also, the “periosteal and corticoendosteal bone mass” value in data set [6] (daily s.c. administration) was “increases periosteal and corticoendosteal bone mass”. Further, in data set [6] (setting [10]), the bone activity entry is “elevated bone activity” and the “tibial diaphyseal bone mass” value was “increased tibial diaphyseal bone mass”. For the same compound, the side effects entry in [7] was “loose stools, diarrhea, vomiting, infected sclerae, and increased serum alkaline phosphatase levels”. Also, in data set [8], the “hard tissue mass in the secondary spongiosa of the proximal tibial metaphysis” value is “increase in hard tissue mass” and the number of trabeculae result was “increase in the number of trabeculae”. In addition, the serum phosphate levels entry in [9] (1 mg of PGE2) was “significant decreases”. Besides, in data set [9] (s.c., doses of 3 mg/Kg/day or higher, rats), the side effects result was “diarrhea and flushing of the extremities along with weight loss”.
